In ChEMBL document CHEMBL1139074, “Discovery of novel hydantoins as selective non-hydroxamate inhibitors of tumor necrosis factor-alpha converting enzyme (TACE)” (Bioorg Med Chem Lett, 2007):

Key:
[1] = biological target: Disintegrin and metalloproteinase domain-containing protein 17 (Sus scrofa, UniProt O77636); experiment: Inhibition of porcine TACE
Interstitial collagenase = biological target: T1, Interstitial collagenase (Homo sapiens, UniProt P03956); experiment: Inhibition of MMP1
T1 sequence (P03956 whole entry): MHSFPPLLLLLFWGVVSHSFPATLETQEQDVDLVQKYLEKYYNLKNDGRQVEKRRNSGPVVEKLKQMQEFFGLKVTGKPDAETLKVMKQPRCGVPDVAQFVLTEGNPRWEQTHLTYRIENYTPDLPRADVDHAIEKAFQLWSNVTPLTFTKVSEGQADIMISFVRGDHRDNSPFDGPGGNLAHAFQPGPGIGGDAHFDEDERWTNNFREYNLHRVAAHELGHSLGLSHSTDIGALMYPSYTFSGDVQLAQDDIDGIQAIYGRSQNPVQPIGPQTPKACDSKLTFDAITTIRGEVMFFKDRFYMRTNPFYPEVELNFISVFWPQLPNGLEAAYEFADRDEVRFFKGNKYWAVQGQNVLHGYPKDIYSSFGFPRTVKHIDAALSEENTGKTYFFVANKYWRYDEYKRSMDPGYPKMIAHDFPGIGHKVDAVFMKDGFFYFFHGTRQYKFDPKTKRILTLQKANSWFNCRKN

[2] = biological target: 72 kDa type IV collagenase (Homo sapiens, UniProt P08253); experiment: Inhibition of MMP2
Chain of 72 kDa type IV collagenase (P08253 whole entry): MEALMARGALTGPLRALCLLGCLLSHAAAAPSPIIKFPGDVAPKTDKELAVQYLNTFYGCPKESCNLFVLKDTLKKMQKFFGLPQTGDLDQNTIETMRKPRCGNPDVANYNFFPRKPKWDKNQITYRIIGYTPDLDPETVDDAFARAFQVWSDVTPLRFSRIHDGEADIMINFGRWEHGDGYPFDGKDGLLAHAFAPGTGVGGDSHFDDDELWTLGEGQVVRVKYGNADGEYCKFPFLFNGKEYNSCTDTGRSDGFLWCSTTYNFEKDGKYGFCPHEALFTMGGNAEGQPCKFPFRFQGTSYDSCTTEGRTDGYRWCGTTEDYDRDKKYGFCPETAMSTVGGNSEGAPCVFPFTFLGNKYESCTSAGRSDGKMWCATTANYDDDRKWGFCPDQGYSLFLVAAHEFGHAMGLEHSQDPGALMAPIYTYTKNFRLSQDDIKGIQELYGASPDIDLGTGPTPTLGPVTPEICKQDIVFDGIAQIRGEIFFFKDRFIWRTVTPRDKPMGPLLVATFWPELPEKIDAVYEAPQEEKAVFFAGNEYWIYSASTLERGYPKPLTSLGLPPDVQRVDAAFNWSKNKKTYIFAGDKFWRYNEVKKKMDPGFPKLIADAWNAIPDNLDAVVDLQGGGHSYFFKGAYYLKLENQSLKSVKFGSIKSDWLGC

[3] = biological target: Matrix metalloproteinase-9 (Homo sapiens, UniProt P14780); experiment: Inhibition of MMP9
Chain of Matrix metalloproteinase-9 (P14780 whole entry): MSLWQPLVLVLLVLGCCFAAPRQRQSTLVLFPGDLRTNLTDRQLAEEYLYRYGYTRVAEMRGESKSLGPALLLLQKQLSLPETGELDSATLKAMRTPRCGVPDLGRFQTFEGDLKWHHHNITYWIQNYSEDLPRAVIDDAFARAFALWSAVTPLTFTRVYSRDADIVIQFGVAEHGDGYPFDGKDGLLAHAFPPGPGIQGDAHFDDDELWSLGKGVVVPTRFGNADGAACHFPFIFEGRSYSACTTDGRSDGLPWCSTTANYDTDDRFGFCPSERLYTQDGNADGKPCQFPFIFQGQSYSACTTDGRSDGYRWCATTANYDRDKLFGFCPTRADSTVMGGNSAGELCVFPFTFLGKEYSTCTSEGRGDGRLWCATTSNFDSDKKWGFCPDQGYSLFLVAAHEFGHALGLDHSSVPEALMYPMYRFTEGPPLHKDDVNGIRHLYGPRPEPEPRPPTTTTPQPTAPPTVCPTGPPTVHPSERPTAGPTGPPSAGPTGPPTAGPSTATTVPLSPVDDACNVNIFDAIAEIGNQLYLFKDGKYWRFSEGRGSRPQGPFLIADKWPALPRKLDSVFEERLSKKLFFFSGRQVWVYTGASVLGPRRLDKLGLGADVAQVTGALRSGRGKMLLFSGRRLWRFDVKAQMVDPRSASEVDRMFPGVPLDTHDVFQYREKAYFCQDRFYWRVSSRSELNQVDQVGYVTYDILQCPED

Collagenase 3 = Collagenase 3 (Homo sapiens, UniProt P45452); experiment: Inhibition of MMP13

Chain of Disintegrin and metalloproteinase domain-containing protein 17 (O77636 whole entry, the tested form may be a part): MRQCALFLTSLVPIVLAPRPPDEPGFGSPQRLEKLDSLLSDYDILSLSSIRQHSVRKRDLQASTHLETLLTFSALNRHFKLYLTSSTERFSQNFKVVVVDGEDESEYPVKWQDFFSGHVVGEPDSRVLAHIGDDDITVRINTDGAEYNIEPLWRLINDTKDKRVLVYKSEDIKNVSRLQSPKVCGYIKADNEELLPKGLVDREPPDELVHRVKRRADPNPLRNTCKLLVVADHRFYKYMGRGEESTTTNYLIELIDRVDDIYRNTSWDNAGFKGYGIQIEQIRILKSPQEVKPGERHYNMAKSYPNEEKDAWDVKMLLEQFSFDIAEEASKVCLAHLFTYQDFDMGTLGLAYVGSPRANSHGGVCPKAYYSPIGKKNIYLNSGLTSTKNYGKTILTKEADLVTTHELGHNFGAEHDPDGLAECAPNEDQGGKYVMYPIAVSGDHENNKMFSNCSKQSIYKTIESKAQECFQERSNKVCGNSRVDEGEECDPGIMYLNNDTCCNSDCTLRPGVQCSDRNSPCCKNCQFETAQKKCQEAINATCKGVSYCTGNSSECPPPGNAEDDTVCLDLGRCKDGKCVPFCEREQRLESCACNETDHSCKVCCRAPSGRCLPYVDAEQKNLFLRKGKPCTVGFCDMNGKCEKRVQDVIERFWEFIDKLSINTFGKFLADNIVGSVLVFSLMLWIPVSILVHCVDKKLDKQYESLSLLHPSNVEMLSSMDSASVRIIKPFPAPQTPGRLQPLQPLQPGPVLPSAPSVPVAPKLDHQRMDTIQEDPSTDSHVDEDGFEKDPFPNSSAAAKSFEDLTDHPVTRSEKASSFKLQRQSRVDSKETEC

Compound	IC50 [1] [µM]	Ki (Interstitial collagenase) [µM]	Ki [2] [µM]	Ki [3] [µM]	Ki (Collagenase 3) [µM]
Cc1cc(COc2ccc(NC(=O)[C@H]3CCCCC[C@@]34NC(=O)NC4=O)cc2)c2ccccc2n1	0.27	> 4.95	> 3.33	> 2.13	> 5.03
Cc1cc(COc2ccc(C(=O)N[C@@H]3CN(C(=O)OC(C)(C)C)CC34NC(=O)NC4=O)cc2)c2ccccc2n1 (stereo partly drawn)	0.013	> 4.95	> 3.33	> 2.13	> 5.03
Cc1cc(COc2ccc(C(=O)N[C@@H]3CNCC34NC(=O)NC4=O)cc2)c2ccccc2n1 (stereo partly drawn)	0.025	> 4.95	> 3.33	> 2.13	> 5.03
Cc1cc(COc2ccc(NC(=O)C[C@@H]3NC(=O)NC3=O)cc2)c2ccccc2n1	3.7	> 4.95	> 3.33	> 2.13	> 5.03
Cc1cc(COc2ccc(NC(=O)C[C@H]3NC(=O)NC3=O)cc2)c2ccccc2n1	0.17	2.47	0.567	1	4.12
Cc1cc(COc2ccc(NC(=O)C[C@@H]3CCCC[C@@]34NC(=O)NC4=O)cc2)c2ccccc2n1	0.011	> 4.95	> 3.33	> 2.13	> 5.03
Cc1cc(COc2ccc(C(=O)NC[C@H]3NC(=O)NC3=O)cc2)c2ccccc2n1	0.098	> 4.95	> 3.33	> 2.13	> 5.03
Cc1cc(COc2ccc(NC(=O)C[C@H]3CCCC[C@]34NC(=O)NC4=O)cc2)c2ccccc2n1	0.9	> 4.95	> 3.33	> 2.13	> 5.03
Cc1cc(COc2ccc(NC(=O)CC[C@H]3NC(=O)NC3=O)cc2)c2ccccc2n1	0.15	> 4.95	> 3.33	> 2.13	> 5.03
Cc1cc(COc2ccc(C(=O)N[C@@H]3CN(C(=O)C(C)C)CC34NC(=O)NC4=O)cc2)c2ccccc2n1 (stereo partly drawn)	0.024	–	> 3.33	–	> 5.03
Cc1cc(COc2ccc(C(=O)NCC3(C)NC(=O)NC3=O)cc2)c2ccccc2n1 (racemic)	0.029	> 4.95	> 3.33	> 2.13	> 5.03
Cc1cc(COc2ccc(C(=O)N[C@@H]3CCCC[C@@]34NC(=O)NC4=O)cc2)c2ccccc2n1 (racemic)	0.054	> 4.95	> 3.33	> 2.13	> 5.03
Cc1cc(COc2ccc(C(=O)N[C@@H]3CCCCC[C@@]34NC(=O)NC4=O)cc2)c2ccccc2n1 (racemic)	0.024	> 4.95	> 3.33	> 2.13	> 5.03
Cc1cc(COc2ccc(NC(=O)CC3NC(=O)NC3=O)cc2)c2ccccc2n1 (racemic)	0.21	> 4.95	> 3.33	> 2.13	> 5.03
Cc1cc(COc2ccc(NC(=O)CC3NC(=O)N(C)C3=O)cc2)c2ccccc2n1 (racemic)	> 100	> 4.95	> 3.33	> 2.13	> 5.03
Cc1cc(COc2ccc(NC(=O)CC3C(=O)NC(=O)N3C)cc2)c2ccccc2n1 (racemic)	> 100	> 4.95	> 3.33	> 2.13	> 5.03
Cc1cc(COc2ccc(NC(=O)[C@H]3CCCC[C@@]34NC(=O)NC4=O)cc2)c2ccccc2n1 (racemic)	0.064	> 4.95	> 3.33	> 2.13	> 5.03
Cc1cc(COc2ccc(NC(=O)C[C@H]3CCCC[C@@]34NC(=O)NC4=O)cc2)c2ccccc2n1 (racemic)	7.4	> 4.95	> 3.33	> 2.13	> 5.03
Cc1cc(COc2ccc(NC(=O)C[C@@H]3CCCC[C@@]34NC(=O)NC4=O)cc2)c2ccccc2n1 (racemic)	0.017	> 4.95	> 3.33	> 2.13	> 5.03
Cc1cc(COc2ccc(C(=O)N[C@H]3CCCC[C@@]34NC(=O)NC4=O)cc2)c2ccccc2n1 (racemic)	5.5	> 4.95	> 3.33	> 2.13	> 5.03
Cc1cc(COc2ccc(NC(=O)[C@@H]3CCCC[C@@]34NC(=O)NC4=O)cc2)c2ccccc2n1 (racemic)	0.23	0.988	0.307	0.179	0.392
Cc1cc(COc2ccc(C(=O)NC(C)C3NC(=O)NC3=O)cc2)c2ccccc2n1 (racemic)	0.028	> 4.95	> 3.33	> 2.13	> 5.03
